Data reported in US20250388574A1, “HETEROCYCLIC COMPOUNDS AS TRIGGERING RECEPTOR EXPRESSED ON MYELOID CELLS 2 AGONISTS AND METHODS OF USE” (AMGEN INC., priority 2020, published 2025).

Molecular target: hTREM2 (Homo sapiens, UniProt Q9NZC2)
Assay: Phospho-Syk AlphaScreen/AlphaLISA assay in TREM2 and DAP12 overexpressing HEK293 cells (Example A1)
Assay type: cell-based
Parameters: expressed in transfected cells
Conditions: HEK293 cells; for EC50: read-out: hTREM2 EC50
In short: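 Agonism read as Syk phosphorylation: compounds in 1% DMSO applied 45 min at room temperature to TREM2/DAP12-HEK293 cells after 20 h culture. Lysis buffer with phosphatase inhibitors and anti-phospho-Syk plus biotinylated anti-Syk antibodies, then AlphaLISA beads (680 nm excitation); percent of control computed from antibody/isotype wells, curves fitted sigmoidally.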

Chain of hTREM2 (Q9NZC2 19-230): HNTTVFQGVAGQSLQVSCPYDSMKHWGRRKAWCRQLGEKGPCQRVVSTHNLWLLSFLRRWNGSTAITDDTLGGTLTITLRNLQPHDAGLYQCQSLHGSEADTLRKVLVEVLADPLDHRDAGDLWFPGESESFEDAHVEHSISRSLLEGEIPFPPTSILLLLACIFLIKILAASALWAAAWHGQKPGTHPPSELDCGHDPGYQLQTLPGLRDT
Chain of hTREM2 (O43914 22-113 partner): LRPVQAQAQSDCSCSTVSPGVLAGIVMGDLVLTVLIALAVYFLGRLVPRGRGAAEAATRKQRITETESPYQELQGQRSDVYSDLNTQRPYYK

Compound | Emax | EC50 [µM]
Cc1nc2cc([C@@H]3CCO[C@@H](c4cccnc4)C3)nc(-c3ccc(Cl)cc3F)c2c(=O)n1C (relative stereo) [Example 176, 5-(4-chloro-2-fluorophenyl)-2,3-dimethyl-7-((2R,4R)-2-(3-pyridinyl)tetrahydro-2H-pyran-4-yl)pyrido[4,3-d]pyrimidin-4(3H)-one and 5-(4-chloro-2-fluorophenyl)-2,3-dimethyl-7-((2S,4S)-2-(3-pyridinyl)tetrahydro-2H-pyran-4-yl)pyrido[4,3-d]pyrimidin-4(3H)-one] | ++++ (Emax>300) | 0.5 to 3
Cc1nc2cc(N3CC[C@H](c4cnn(C)c4)C3)nc(-c3ccc(Cl)cc3F)c2c(=O)n1C [Example 202, (R)-5-(4-chloro-2-fluorophenyl)-2,3-dimethyl-7-(3-(1-methyl-1H-pyrazol-4-yl)pyrrolidin-1-yl)pyrido[4,3-d]pyrimidin-4(3H)-one] | +++ (Emax>200 and ≤300) | 3 to 100
Cc1nc2cc(N3CCO[C@H](C4CC4)C3)nc(-c3ccc(Cl)cc3F)c2c(=O)n1C [Example 194, (R)-5-(4-chloro-2-fluorophenyl)-7-(2-cyclopropylmorpholino)-2,3-dimethylpyrido[4,3-d]pyrimidin-4(3H)-one] | +++ (Emax>200 and ≤300) | 3 to 100
Cc1nc2cc(N3CCC[C@H](c4ccncc4)C3)nc(-c3ccc(Cl)cc3F)c2c(=O)n1C (single isomer, unassigned) [Example 114] | +++ (Emax>200 and ≤300) | 0.05 to 0.5
COc1cc([C@@H]2CN(c3cc4nc(C)n(C)c(=O)c4c(-c4ccc(Cl)cc4F)n3)CCO2)ccn1 (single isomer, unassigned) [Example 83] | ++++ (Emax>300) | 0.05 to 0.5
Cc1ccc([C@H]2CN(c3cc4nc(C)n(C)c(=O)c4c(-c4ccc(Cl)cc4F)n3)CCO2)cn1 (single isomer, unassigned) [Example 139] | ++++ (Emax>300) | 0.05 to 0.5
Cc1nc([C@@H]2CN(c3cc4nc(C)n(C)c(=O)c4c(-c4ccc(Cl)cc4F)n3)CCO2)no1 (single isomer, unassigned) [Example 57] | +++ (Emax>200 and ≤300) | 0.5 to 3
Cc1nc2cc([C@@H]3CCO[C@H](c4cnn(C)c4)C3)nc(-c3ccc(Cl)cc3F)c2c(=O)n1C [Example 275, 5-(4-chloro-2-fluorophenyl)-2,3-dimethyl-7-((2S,4R)-2-(1-methyl-1H-pyrazol-4-yl)tetrahydro-2H-pyran-4-yl)pyrido[4,3-d]pyrimidin-4(3H)-one] | ++ (Emax>100 and ≤200) | < 0.05
Cc1nc2cc(N3CCCC(N(C)C)C3)nc(-c3ccc(Cl)cc3F)c2c(=O)n1C (stereo not drawn) [Example 109, 5-(4-chloro-2-fluoro-phenyl)-7-(3-(dimethylamino)-1-piperidinyl)-2,3-dimethylpyrido[4,3-d]pyrimidin-4(3H)-one] | ++++ (Emax>300) | 0.5 to 3
COc1cccc([C@@H]2CN(c3cc4nc(C)n(C)c(=O)c4c(-c4ccc(Cl)cc4F)n3)CCO2)c1 (single isomer, unassigned) [Example 81] | +++ (Emax>200 and ≤300) | 3 to 100
Cc1nc2cc([C@@H]3CCO[C@H](c4cccnc4)C3)nc(-c3ccc(Cl)cc3F)c2c(=O)n1C (single isomer, unassigned) [Example 178] | ++++ (Emax>300) | 0.5 to 3
Cc1nc2cc(N3CCC(F)(F)[C@H](N(C)C)C3)nc(-c3ccc(Cl)cc3F)c2c(=O)n1C [Example 250, (R)-5-(4-chloro-2-fluorophenyl)-7-(3-(dimethylamino)-4,4-difluoropiperidin-1-yl)-2,3-dimethylpyrido[4,3-d]pyrimidin-4(3H)-one] | ++++ (Emax>300) | 3 to 100
CCCn1c(C)nc2cc(N3CCn4ccnc4C3)nc(-c3ccc(Cl)cc3F)c2c1=O [Example 182, 5-(4-chloro-2-fluorophenyl)-7-(5,6-dihydroimidazo[1,2-a]pyrazin-7(8H)-yl)-2-methyl-3-propylpyrido[4,3-d]pyrimidin-4(3H)-one] | +++ (Emax>200 and ≤300) | 3 to 100
Cc1nnc([C@H]2CN(c3cc4nc(C)n(C)c(=O)c4c(-c4ccc(Cl)cc4F)n3)CCO2)o1 [Example 271, (R)-5-(4-chloro-2-fluorophenyl)-2,3-dimethyl-7-(2-(5-methyl-1,3,4-oxadiazol-2-yl)morpholino)pyrido[4,3-d]pyrimidin-4(3H)-one] | +++ (Emax>200 and ≤300) | 0.05 to 0.5
Cc1nc2cc(N3C[C@@H](C)O[C@H](c4cnn(C)c4)C3)nc(-c3ccc(Cl)cc3F)c2c(=O)n1C (single isomer, unassigned) [Example 27] | ++++ (Emax>300) | 0.05 to 0.5
ethyl (2R,4S)-4-(5-(4-chloro-2-fluorophenyl)-2,3-dimethyl-4-oxo-3,4-dihydropyrido[4,3-d]pyrimidin-7-yl)tetrahydro-2H-pyran-2-carboxylate and ethyl (2S,4R)-4-(5-(4-chloro-2-fluorophenyl)-2,3-dimethyl-4-oxo-3,4-dihydropyrido[4,3-d]pyrimidin-7-yl)tetrahydro-2H-pyran-2-carboxylate [Example 167] | ++++ (Emax>300) | 0.05 to 0.5
Cc1nc2cc(N3CCO[C@@H](c4cnn(C)c4)C3)nc(-c3ccc(Cl)cc3F)c2c(=O)n1C1CCCCC1 [Example 18, 5-(4-chloro-2-fluorophenyl)-3-cyclohexyl-2-methyl-7-((2S)-2-(1-methyl-1H-pyrazol-4-yl)-4-morpholinyl)pyrido[4,3-d]pyrimidin-4(3H)-one] | ++ (Emax>100 and ≤200) | 0.5 to 3
Cc1nc2cc(N3CCO[C@@H](c4ccc(OCC(F)(F)F)nc4)C3)nc(-c3ccc(Cl)cc3F)c2c(=O)n1C [Example 236, (S)-5-(4-chloro-2-fluorophenyl)-2,3-dimethyl-7-(2-(6-(2,2,2-trifluoroethoxy)pyridin-3-yl)morpholino)pyrido[4,3-d]pyrimidin-4(3H)-one] | ++ (Emax>100 and ≤200) | 3 to 100
CCCn1c(C)nc2cc(N3CCO[C@H](C(F)F)C3)nc(-c3ccc(Cl)cc3F)c2c1=O [Example 191, (S)-5-(4-chloro-2-fluorophenyl)-7-(2-(difluoromethyl)morpholino)-2-methyl-3-propylpyrido[4,3-d]pyrimidin-4(3H)-one] | ++++ (Emax>300) | 0.5 to 3
Cc1nc2cc([C@H]3CCO[C@@H](c4cnn(C)c4)C3)nc(-c3ccc(Cl)cc3F)c2c(=O)n1C (single isomer, unassigned) [Example 162] | +++ (Emax>200 and ≤300) | < 0.05
CCCn1c(C)nc2cc(N3CCOC(CF)C3)nc(-c3ccc(Cl)cc3F)c2c1=O (stereo not drawn) [Example 185, 5-(4-chloro-2-fluorophenyl)-7-(2-(fluoromethyl)morpholino)-2-methyl-3-propylpyrido[4,3-d]pyrimidin-4(3H)-one] | +++ (Emax>200 and ≤300) | 0.5 to 3
Cc1nc2cc(N3CCO[C@H](c4cnn(C)c4)C3)nc(-c3ccc(Cl)cc3)c2c(=O)n1C [Example 220, (R)-5-(4-chlorophenyl)-2,3-dimethyl-7-(2-(1-methyl-1H-pyrazol-4-yl)morpholino)pyrido[4,3-d]pyrimidin-4(3H)-one] | ++++ (Emax>300) | 0.05 to 0.5
Cn1cc([C@H]2CN(c3cc4ncn(C)c(=O)c4c(-c4ccc(Cl)cc4F)n3)CCO2)cn1 [Example 158, 5-(4-chloro-2-fluorophenyl)-3-methyl-7-((2S)-2-(1-methyl-1H-pyrazol-4-yl)-4-morpholinyl)pyrido[4,3-d]pyrimidin-4(3H)-one] | +++ (Emax>200 and ≤300) | 0.5 to 3
COCCn1cc([C@H]2CN(c3cc4nc(C)n(C)c(=O)c4c(-c4ccc(Cl)cc4F)n3)CCO2)cn1 [Example 127, 5-(4-chloro-2-fluorophenyl)-7-((2S)-2-(1-(2-methoxyethyl)-1H-pyrazol-4-yl)-4-morpholinyl)-2,3-dimethylpyrido[4,3-d]pyrimidin-4(3H)-one] | ++++ (Emax>300) | 0.05 to 0.5
Cc1cc([C@@H]2C[C@H](c3cc4nc(C)n(C)c(=O)c4c(-c4ccc(Cl)cc4F)n3)CCO2)ccn1 (single isomer, unassigned) [Example 170] | +++ (Emax>200 and ≤300) | 0.5 to 3
Cc1nc2cc(N3CCO[C@H]([C@H]4CCOC4)C3)nc(-c3ccc(Cl)cc3F)c2c(=O)n1C (single isomer, unassigned) [Example 43] | +++ (Emax>200 and ≤300) | 0.05 to 0.5
Cc1cn2c(n1)CN(c1cc3nc(C)n(C)c(=O)c3c(-c3ccc(Cl)cc3F)n1)CC2 [Example 234, 5-(4-chloro-2-fluorophenyl)-2,3-dimethyl-7-(2-methyl-5,6-dihydroimidazo[1,2-a]pyrazin-7(8H)-yl)pyrido[4,3-d]pyrimidin-4(3H)-one] | ++ (Emax>100 and ≤200) | 3 to 100
Cc1nc2cc(N3CC[C@H](c4cccnc4)C3)nc(-c3ccc(Cl)cc3F)c2c(=O)n1C [Example 261, (R)-5-(4-chloro-2-fluorophenyl)-2,3-dimethyl-7-(3-(pyridin-3-yl)pyrrolidin-1-yl)pyrido[4,3-d]pyrimidin-4(3H)-one] | ++++ (Emax>300) | 3 to 100
CCn1c(C)nc2cc(N3CCO[C@@H](c4noc(C)n4)C3)nc(-c3ccc(Cl)cc3F)c2c1=O [Example 148, 5-(4-chloro-2-fluorophenyl)-3-ethyl-2-methyl-7-((2R)-2-(5-methyl-1,2,4-oxadiazol-3-yl)-4-morpholinyl)pyrido[4,3-d]pyrimidin-4(3H)-one] | ++++ (Emax>300) | 3 to 100
Cc1nc2cc(N3CC[C@H](c4ccccn4)C3)nc(-c3ccc(Cl)cc3F)c2c(=O)n1C [Example 205, (S)-5-(4-chloro-2-fluorophenyl)-2,3-dimethyl-7-(3-(pyridin-2-yl)pyrrolidin-1-yl)pyrido[4,3-d]pyrimidin-4(3H)-one] | +++ (Emax>200 and ≤300) | 3 to 100
